Test results reported in publication PMC12273560, “A versatile fluorescence polarization-based deubiquitination assay using an isopeptide bond substrate mimetic (IsoMim)” (The Journal of Biological Chemistry, 2025).

Experiments:
USP2 = target: T1, USP2 (Homo sapiens, UniProt O75604); experiment: fluorescence polarization deubiquitination assay (IsoMim); type: biochemical
T1 construct: expressed in E. coli BL21(DE3)-RIL, nickel column purification
T1 sequence (O75604 250-605): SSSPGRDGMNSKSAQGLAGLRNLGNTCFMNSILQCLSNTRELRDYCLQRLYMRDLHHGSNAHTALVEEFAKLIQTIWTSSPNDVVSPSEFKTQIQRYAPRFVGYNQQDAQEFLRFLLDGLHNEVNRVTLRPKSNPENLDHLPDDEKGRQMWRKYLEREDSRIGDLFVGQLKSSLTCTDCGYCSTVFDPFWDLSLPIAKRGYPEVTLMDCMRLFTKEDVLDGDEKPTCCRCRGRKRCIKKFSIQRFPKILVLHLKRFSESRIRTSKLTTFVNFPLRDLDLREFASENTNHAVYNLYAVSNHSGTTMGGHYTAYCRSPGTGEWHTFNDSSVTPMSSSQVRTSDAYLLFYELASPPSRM

UCHL3 = target: T2, UCHL3 (Homo sapiens, UniProt P15374); experiment: as above; type: biochemical
T2 construct: expressed in E. coli BL21(DE3)-RIL, nickel column purification
T2 sequence (P15374 1-230): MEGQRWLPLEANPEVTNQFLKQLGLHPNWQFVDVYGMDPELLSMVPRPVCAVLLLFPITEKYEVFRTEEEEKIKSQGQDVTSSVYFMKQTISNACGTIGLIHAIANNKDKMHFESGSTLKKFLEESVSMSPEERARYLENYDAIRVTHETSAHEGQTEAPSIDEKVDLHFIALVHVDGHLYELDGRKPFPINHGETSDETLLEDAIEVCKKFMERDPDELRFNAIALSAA

**Q.** What does the source list for `N#CSc1cc(SC#N)c(N)nc1N` [PR-619]?
**A.** IC50 (USP2): 1070 nM; IC50 (UCHL3): 4.68 µM
